Data reported in article PMC9079931 (RSC Advances, 2018).

Assays:
[1] = cited from earlier work
[2] = test system: human colon cancer cell line Caco-2; experiment: In vitro cytotoxicity, MTT assay; type: cell-based; conditions: Caco-2, 24 h, 0.001–100 μg ml^−1
[3] = cited from earlier work; remark: listed apart in the source
[4] = cited from earlier work; remark: listed apart in the source

| Compound | Oral acute toxicity dose [1] | Cell viability of Caco-2 cells versus concentration [2] | Solubility of DIC in water [3] | Acute toxicity [4] |
| --- | --- | --- | --- | --- |
| OB(O)c1ccccc1 [phenylboronic acid] | higher than 900 mg kg^−1 body weight |  |  |  |
| N#CC(c1ccc(Cl)cc1)c1c(Cl)cc(-n2ncc(=O)[nH]c2=O)cc1Cl (stereo not shown) [DIC, Diclazuril] |  | gradually decreased with the increase of free drug concentration | 0.69 µg/mL | low acute toxicity |
